According to patent publication EP4624463A1, “SPIRO DERIVATIVE AS KIF18A INHIBITOR” (Insilico Medicine IP Limited, priority 2022, dated 2024):

Molecular target: T1, KIF18A (Homo sapiens, UniProt Q8NI77)
T1 sequence (Q8NI77 1-898): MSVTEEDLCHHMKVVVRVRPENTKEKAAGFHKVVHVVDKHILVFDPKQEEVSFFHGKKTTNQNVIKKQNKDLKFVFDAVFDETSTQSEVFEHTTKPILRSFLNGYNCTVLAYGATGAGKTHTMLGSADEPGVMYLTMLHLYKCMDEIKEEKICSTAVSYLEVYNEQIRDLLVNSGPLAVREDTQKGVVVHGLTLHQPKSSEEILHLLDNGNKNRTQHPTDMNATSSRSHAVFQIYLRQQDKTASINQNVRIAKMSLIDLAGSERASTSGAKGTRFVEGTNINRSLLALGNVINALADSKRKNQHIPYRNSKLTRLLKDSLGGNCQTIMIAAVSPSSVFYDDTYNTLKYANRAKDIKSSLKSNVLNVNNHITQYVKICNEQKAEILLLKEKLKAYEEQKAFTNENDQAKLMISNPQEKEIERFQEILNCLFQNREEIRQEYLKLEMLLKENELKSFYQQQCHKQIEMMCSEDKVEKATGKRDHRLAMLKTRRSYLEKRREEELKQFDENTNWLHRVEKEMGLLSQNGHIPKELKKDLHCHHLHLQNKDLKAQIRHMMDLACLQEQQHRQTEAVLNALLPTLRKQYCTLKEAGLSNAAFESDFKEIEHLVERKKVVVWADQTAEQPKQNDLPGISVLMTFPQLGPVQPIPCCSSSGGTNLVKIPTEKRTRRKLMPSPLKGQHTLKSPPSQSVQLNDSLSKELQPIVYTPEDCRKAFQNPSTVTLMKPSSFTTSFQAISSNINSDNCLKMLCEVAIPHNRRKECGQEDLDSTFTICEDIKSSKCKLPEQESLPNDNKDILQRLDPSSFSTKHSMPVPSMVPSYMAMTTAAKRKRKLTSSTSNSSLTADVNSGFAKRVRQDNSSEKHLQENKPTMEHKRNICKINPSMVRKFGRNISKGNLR
Assay: KIF18A enzyme inhibition activity assay (ADP-Glo)
Assay type: biochemical
Details: ADP-Glo kit, porcine tubulin, ATP; 10 concentration points, 3-fold serial dilution; 25°C
Method: Embodiment 6: Biological example: KIF18A enzyme inhibition activity assay
2) Steps: • 2.1 Preparation of enzyme protein buffer solution • 2.2 Activity screening • a) 40 µL of compound solution was added to a 384-well dilution plate; • b) A 3-fold serial dilution was performed to obtain 10 concentration points; • c) 0.1 µL of compound solution was transferred into a 384-well plate; • d) 5 µL of enzyme reaction solution was added and centrifuged at 1,000 RPM for 1 minute; • e) The reaction took place at 25°C for 15 minutes; • f) 5 µL of ATP reaction solution was added; • g) The reaction took place at 25°C for 60 minutes; • h) 10 µL of ADP-Glo reagent was added and centrifuged at 1,000 RPM for 1 minute; • i) The reaction took place at 25°C for 60 minutes; • j) 20 µL of detection reagent was added and centrifuged at 1,000 RPM for 1 minute; • k) The reaction took place at 25°C for 60 minutes; • l) The Envision 2104 plate reader was used to measure […]. 3) Data analysis • 3.1 Fluorescence signal values were obtained from the readings of each well • 3.2 Calculation of IC50 Concentration-response curve fitting and IC50 determination were performed using GraphPad Prism software with a four-parameter logistic regression model.

Structure (SMILES) | IC50 [nM]
O=C1c2ccc(NS(=O)(=O)CCO)cc2C2(CCCCC2)CN1c1cccc(N2CCOCC2)n1 [EX01, 2-Hydroxy-N-{2'-[6-(1,4-oxazinane-4-yl)pyridin-2-yl]-1'-oxo-2',3'-dihydro-1'H-spiro[cyclohexane-1,4'-isoquinoline]-6'-yl} ethanesulfonamide] | 2030
Cc1cc(N2CC3(CCC4(CC4)CC3)c3cc(NS(=O)(=O)CCO)ccc3C2=O)nc(N2CCC(F)(F)CC2)n1 [EX02, N-{2-[2-(4,4-Difluorohexahydropyridin-1-yl)-6-methylpyrimidin-4-yl]-1-oxo-2,3-dihydro-1H-spiro[isoquinoline-4,6'-spiro[2.5]octane]-6-yl}-2-hydroxyethanesulfonamide] | 38
Cc1cc(N2CC3(CCC(C)(C)CC3)c3cc(NS(=O)(=O)CCO)ccc3C2=O)nc(N2CCC(F)(F)CC2)n1 [EX03, N-{2'-[2-(4,4-difluorohexahydropyridin-1-yl)-6-methylpyrimidin-4-yl]-1,1-dimethyl-1'-oxo-2',3'-dihydro-1'H-spiro[cyclohexane-4,4'-isoquinoline]-6'-yl}-2-hydroxyethanesulfonamide] | 44
C[C@@H]1CN(c2cccc(N3CC4(CCC5(CC5)CC4)c4cc(NS(=O)(=O)CCO)ccc4C3=O)n2)CCO1 [EX04, 2-Hydroxy-N-(2-{6-[(2R)-2-methyl-1,4-oxazinane-4-yl]pyridin-2-yl}-1-oxo-2,3-dihydro-1H-spiro[isoquinoline-4,6'-spiro[2.5]octane]-6-yl)ethanesulfonamide] | 107
O=C1c2ccc(NS(=O)(=O)CCO)cc2C2(CCC3(CC3)CC2)CN1c1ccc(=O)n(C2CC(F)(F)C2)n1 [EX05, N-{2-[1-(3,3-Difluorocyclobutyl)-6-oxo-1,2-diazacyclohexanecarbonate-3-yl]-1-oxo-2,3-dihydro-1H-spiro[isoquinoline-4,6'-spiro[2.5]octane]-6-yl}-2-hydroxyethanesulfonamide] | 8.2
